Source: patent publication US20030229228A1 (priority 2000, published 2003)

melting point	SMILES
109 to 111 °C	CCS(=O)(=O)N[C@H](C(=O)NCCc1cc(Br)c(OCC#Cc2ccc(Cl)cc2)c(OC)c1)C(C)C
145 to 147 °C	CCS(=O)(=O)N[C@H](C(=O)NCCc1cc(Br)c(O)c(OC)c1)C(C)C
